Experimental data taken from the NIST ThermoML archive (doi:10.1016/j.fluid.2018.09.024).
± gives the expanded uncertainty stated by the source.

Assay: activity coefficient (dimensionless); of the first substance listed, at infinite dilution; xn = mol fraction of the nth substance listed
Details: 101.33 kPa, Liquid, Chromatography, x1 = 0

Row | Compound | activity coefficient (318.15 K) | activity coefficient (328.15 K) | activity coefficient (338.15 K) | activity coefficient (348.15 K) | activity coefficient (358.15 K) | activity coefficient (368.15 K) | activity coefficient (378.15 K)
1 | CC(C)CO [2-methyl-1-propanol] + CCCCCCCCCCCC[N+](C)(C)CCOc1ccccc1.O=S(=O)([N-]S(=O)(=O)C(F)(F)F)C(F)(F)F | 1.4 ± 0.09 | 1.33 ± 0.09 | 1.26 ± 0.08 | 1.21 ± 0.08 | 1.16 ± 0.07 | 1.12 ± 0.07 | 
2 | C=CCCCCCCCC [1-decene] + CCCCCCCCCCCC[N+](C)(C)CCOc1ccccc1.O=S(=O)([N-]S(=O)(=O)C(F)(F)F)C(F)(F)F | 4.02 ± 0.27 | 4.15 ± 0.28 | 4.27 ± 0.29 | 4.4 ± 0.3 | 4.52 ± 0.31 | 4.63 ± 0.32 | 
3 | CCOC(C)=O [ethyl acetate] + CCCCCCCCCCCC[N+](C)(C)CCOc1ccccc1.N#C[N-]C#N |  | 1.2 ± 0.08 | 1.24 ± 0.08 | 1.27 ± 0.08 | 1.31 ± 0.09 | 1.34 ± 0.09 | 1.37 ± 0.09
4 | COC(C)(C)C [2-methoxy-2-methylpropane] + CCCCCCCCCCCC[N+](C)(C)CCOc1ccccc1.O=S(=O)([N-]S(=O)(=O)C(F)(F)F)C(F)(F)F | 1.03 ± 0.06 | 1.09 ± 0.07 | 1.15 ± 0.07 | 1.21 ± 0.08 | 1.27 ± 0.08 | 1.33 ± 0.09 | 
5 | O [water] + CCCCCCCCCCCC[N+](C)(C)CCOc1ccccc1.O=S(=O)([N-]S(=O)(=O)C(F)(F)F)C(F)(F)F | 3.65 ± 0.25 | 3.32 ± 0.23 | 3.04 ± 0.21 | 2.8 ± 0.19 | 2.59 ± 0.18 | 2.4 ± 0.16 | 
6 | Cc1cccc(C)c1 [1,3-dimethylbenzene] + CCCCCCCCCCCC[N+](C)(C)CCOc1ccccc1.O=S(=O)([N-]S(=O)(=O)C(F)(F)F)C(F)(F)F | 0.847 ± 0.054 | 0.902 ± 0.057 | 0.957 ± 0.06 | 1.01 ± 0.06 | 1.07 ± 0.07 | 1.12 ± 0.07 | 
7 | C=CCCCCC [1-heptene] + CCCCCCCCCCCC[N+](C)(C)CCOc1ccccc1.O=S(=O)([N-]S(=O)(=O)C(F)(F)F)C(F)(F)F | 2.5 ± 0.17 | 2.59 ± 0.18 | 2.67 ± 0.18 | 2.76 ± 0.19 | 2.84 ± 0.19 | 2.92 ± 0.2 | 
8 | CCc1ccccc1 [ethylbenzene] + CCCCCCCCCCCC[N+](C)(C)CCOc1ccccc1.O=S(=O)([N-]S(=O)(=O)C(F)(F)F)C(F)(F)F | 0.9 ± 0.057 | 0.948 ± 0.06 | 0.995 ± 0.062 | 1.04 ± 0.07 | 1.09 ± 0.07 | 1.13 ± 0.07 | 
9 | CCCCO [butan-1-ol] + CCCCCCCCCCCC[N+](C)(C)CCOc1ccccc1.O=S(=O)([N-]S(=O)(=O)C(F)(F)F)C(F)(F)F | 1.38 ± 0.09 | 1.32 ± 0.09 | 1.28 ± 0.08 | 1.23 ± 0.08 | 1.19 ± 0.08 | 1.15 ± 0.07 | 
10 | CC(C)CC(C)(C)C [2,2,4-trimethylpentane] + CCCCCCCCCCCC[N+](C)(C)CCOc1ccccc1.O=S(=O)([N-]S(=O)(=O)C(F)(F)F)C(F)(F)F | 3.66 ± 0.25 | 3.72 ± 0.25 | 3.77 ± 0.26 | 3.82 ± 0.26 | 3.86 ± 0.26 | 3.9 ± 0.27 | 
11 | CC1CCCCC1 [methylcyclohexane] + CCCCCCCCCCCC[N+](C)(C)CCOc1ccccc1.N#C[N-]C#N |  | 3.67 ± 0.25 | 3.73 ± 0.25 | 3.78 ± 0.26 | 3.85 ± 0.26 | 3.9 ± 0.27 | 3.95 ± 0.27
12 | CCCCCCC [heptane] + CCCCCCCCCCCC[N+](C)(C)CCOc1ccccc1.N#C[N-]C#N |  | 5.99 ± 0.41 | 6.08 ± 0.41 | 6.16 ± 0.42 | 6.24 ± 0.43 | 6.33 ± 0.43 | 6.41 ± 0.44
13 | CCCC(C)=O [pentan-2-one] + CCCCCCCCCCCC[N+](C)(C)CCOc1ccccc1.N#C[N-]C#N |  | 0.899 ± 0.057 | 0.936 ± 0.059 | 0.97 ± 0.061 | 1 ± 0.06 | 1.04 ± 0.07 | 1.07 ± 0.07
14 | CC(C)OC(C)C [diisopropyl ether] + CCCCCCCCCCCC[N+](C)(C)CCOc1ccccc1.N#C[N-]C#N |  | 4.03 ± 0.27 | 4.12 ± 0.28 | 4.22 ± 0.29 | 4.29 ± 0.29 | 4.36 ± 0.3 | 4.43 ± 0.3
15 | CCCC=O [butanal] + CCCCCCCCCCCC[N+](C)(C)CCOc1ccccc1.N#C[N-]C#N |  | 0.766 ± 0.05 | 0.779 ± 0.051 | 0.79 ± 0.051 | 0.803 ± 0.052 | 0.816 ± 0.053 | 0.828 ± 0.053
16 | Cc1ccccc1 [toluene] + CCCCCCCCCCCC[N+](C)(C)CCOc1ccccc1.N#C[N-]C#N |  | 1.05 ± 0.07 | 1.1 ± 0.07 | 1.15 ± 0.07 | 1.19 ± 0.08 | 1.24 ± 0.08 | 1.28 ± 0.08

Row | Compound | activity coefficient (318.15 K) | activity coefficient (328.15 K) | activity coefficient (338.15 K) | activity coefficient (348.15 K) | activity coefficient (358.15 K) | activity coefficient (368.15 K) | activity coefficient (378.15 K)
17 | C=Cc1ccccc1 [styrene] + CCCCCCCCCCCC[N+](C)(C)CCOc1ccccc1.N#C[N-]C#N |  | 0.905 ± 0.057 | 0.94 ± 0.06 | 0.981 ± 0.062 | 1.02 ± 0.06 | 1.06 ± 0.07 | 1.1 ± 0.07
18 | CC#N [acetonitrile] + CCCCCCCCCCCC[N+](C)(C)CCOc1ccccc1.N#C[N-]C#N |  | 0.756 ± 0.05 | 0.766 ± 0.05 | 0.775 ± 0.051 | 0.785 ± 0.051 | 0.793 ± 0.052 | 0.801 ± 0.052
19 | CCC(C)O (stereo unspecified) [butan-2-ol] + CCCCCCCCCCCC[N+](C)(C)CCOc1ccccc1.O=S(=O)([N-]S(=O)(=O)C(F)(F)F)C(F)(F)F | 1.23 ± 0.08 | 1.2 ± 0.08 | 1.17 ± 0.07 | 1.15 ± 0.07 | 1.12 ± 0.07 | 1.1 ± 0.07 | 
20 | C=COC(C)=O [vinyl acetate] + CCCCCCCCCCCC[N+](C)(C)CCOc1ccccc1.O=S(=O)([N-]S(=O)(=O)C(F)(F)F)C(F)(F)F | 0.393 ± 0.034 | 0.414 ± 0.034 | 0.434 ± 0.035 | 0.453 ± 0.036 | 0.473 ± 0.037 | 0.493 ± 0.038 | 
21 | CCCO [propan-1-ol] + CCCCCCCCCCCC[N+](C)(C)CCOc1ccccc1.O=S(=O)([N-]S(=O)(=O)C(F)(F)F)C(F)(F)F | 1.28 ± 0.08 | 1.24 ± 0.08 | 1.2 ± 0.08 | 1.17 ± 0.07 | 1.14 ± 0.07 | 1.11 ± 0.07 | 
22 | CCCOCCC [dipropyl ether] + CCCCCCCCCCCC[N+](C)(C)CCOc1ccccc1.O=S(=O)([N-]S(=O)(=O)C(F)(F)F)C(F)(F)F | 1.78 ± 0.12 | 1.85 ± 0.12 | 1.92 ± 0.13 | 1.99 ± 0.14 | 2.06 ± 0.14 | 2.13 ± 0.14 | 
23 | C=CCCCCCC [oct-1-ene] + CCCCCCCCCCCC[N+](C)(C)CCOc1ccccc1.O=S(=O)([N-]S(=O)(=O)C(F)(F)F)C(F)(F)F | 2.97 ± 0.2 | 3.06 ± 0.21 | 3.14 ± 0.21 | 3.23 ± 0.22 | 3.32 ± 0.23 | 3.39 ± 0.23 | 
24 | CC(C)(C)O [2-methylpropan-2-ol] + CCCCCCCCCCCC[N+](C)(C)CCOc1ccccc1.O=S(=O)([N-]S(=O)(=O)C(F)(F)F)C(F)(F)F | 1.14 ± 0.07 | 1.1 ± 0.07 | 1.06 ± 0.07 | 1.02 ± 0.06 | 0.986 ± 0.062 | 0.952 ± 0.06 | 
25 | CCOC(C)(C)C [2-ethoxy-2-methylpropane] + CCCCCCCCCCCC[N+](C)(C)CCOc1ccccc1.N#C[N-]C#N |  | 3.66 ± 0.25 | 3.74 ± 0.25 | 3.82 ± 0.26 | 3.9 ± 0.27 | 3.97 ± 0.27 | 4.03 ± 0.27
26 | CCOCC [diethyl ether] + CCCCCCCCCCCC[N+](C)(C)CCOc1ccccc1.O=S(=O)([N-]S(=O)(=O)C(F)(F)F)C(F)(F)F | 1.06 ± 0.07 | 1.12 ± 0.07 | 1.18 ± 0.08 | 1.24 ± 0.08 | 1.3 ± 0.08 | 1.36 ± 0.09 | 
27 | C1=CCCCC1 [cyclohexene] + CCCCCCCCCCCC[N+](C)(C)CCOc1ccccc1.O=S(=O)([N-]S(=O)(=O)C(F)(F)F)C(F)(F)F | 1.47 ± 0.1 | 1.52 ± 0.1 | 1.56 ± 0.1 | 1.61 ± 0.11 | 1.65 ± 0.11 | 1.69 ± 0.11 | 
28 | CCCCCO [pentan-1-ol] + CCCCCCCCCCCC[N+](C)(C)CCOc1ccccc1.N#C[N-]C#N |  | 0.477 ± 0.037 | 0.491 ± 0.037 | 0.505 ± 0.038 | 0.517 ± 0.039 | 0.53 ± 0.039 | 0.542 ± 0.04
29 | C#CCCCCC [1-heptyne] + CCCCCCCCCCCC[N+](C)(C)CCOc1ccccc1.N#C[N-]C#N |  | 1.93 ± 0.13 | 2.03 ± 0.14 | 2.12 ± 0.14 | 2.21 ± 0.15 | 2.3 ± 0.16 | 2.4 ± 0.16
30 | CCCCCO [pentan-1-ol] + CCCCCCCCCCCC[N+](C)(C)CCOc1ccccc1.O=S(=O)([N-]S(=O)(=O)C(F)(F)F)C(F)(F)F | 1.34 ± 0.09 | 1.31 ± 0.09 | 1.27 ± 0.08 | 1.24 ± 0.08 | 1.22 ± 0.08 | 1.19 ± 0.08 | 
31 | CCCCCCCCCC [decane] + CCCCCCCCCCCC[N+](C)(C)CCOc1ccccc1.N#C[N-]C#N |  | 9.02 ± 0.62 | 9.17 ± 0.63 | 9.31 ± 0.64 | 9.45 ± 0.64 | 9.6 ± 0.65 | 9.75 ± 0.67
